Some test systems named below: Bacillus subtilis 168; Staphylococcus aureus; Micrococcus luteus.
Common to all, as to test: ≥ marks a high value that may be exact or a test limit, other limits are often not marked, values filed in µg/mL are converted to µM
In experiment [1] the test system is Staphylococcus aureus NCTC 8325.
The subject of experiment [2] is Escherichia coli ATCC 25922.
For experiment [3], the system named is Candida albicans ATCC 90028.
Experiment [4] concerns Staphylococcus aureus NCTC 10788.

The values below come from DBAASP.

SMILES strings stand for the structures. Converted amounts (≈) assume the structure as drawn. A value given as a limit tells only on which side of the number the result lay.

In the case of `CC[C@H](C)[C@H](NC(=O)[C@H](CC(C)C)NC(=O)[C@H](CO)NC(=O)[C@@H](NC(=O)[C@H](CC(C)C)NC(=O)[C@H](CO)NC(=O)[C@@H]1CCCN1C(=O)[C@H](CC(C)C)NC(=O)CNC(=O)[C@H](CCCCN)NC(=O)[C@H](C)NC(=O)[C@H](CC(C)C)NC(=O)[C@H](C)NC(=O)CNC(=O)[C@@H](NC(=O)[C@@H](NC(=O)[C@H](CO)NC(=O)CNC(=O)[C@H](Cc1ccccc1)NC(=O)[C@@H](N)Cc1ccccc1)[C@@H](C)CC)[C@@H](C)CC)[C@@H](C)CC)C(=O)N[C@@H](CCCCN)C(=O)N[C@@H](CCCCN)C(N)=O` [FFGSIIGALAKGLPSLISLIKK], the MIC – broadly, the lowest concentration found to suppress growth – in experiment [1] was 12.5 µM (≈ 28.4 µg/mL); in experiment [2], 6 µM (≈ 13.6 µg/mL).

With `CC[C@H](C)[C@H](NC(=O)[C@H](CCSC)NC(=O)[C@H](CO)NC(=O)CNC(=O)[C@H](Cc1ccccc1)NC(=O)[C@@H](N)Cc1ccccc1)C(=O)NCC(=O)N[C@@H](C)C(=O)N[C@@H](CC(C)C)C(=O)N[C@@H](C)C(=O)N[C@@H](CCCCN)C(=O)NCC(=O)N[C@@H](CC(C)C)C(=O)N1CCC[C@H]1C(=O)N[C@@H](CO)C(=O)N[C@@H](CC(C)C)C(=O)N[C@H](C(=O)N[C@@H](CO)C(=O)N[C@@H](CC(C)C)C(=O)N[C@H](C(=O)N[C@@H](CCCCN)C(=O)N[C@@H](CCCCN)C(N)=O)[C@@H](C)CC)[C@@H](C)CC` [FFGSMIGALAKGLPSLISLIKK], the MIC in experiment [1] and in experiment [2] was 12.5 µM (≈ 28.6 µg/mL) each time.

`CC[C@H](C)[C@@H]1NC(=O)[C@H](C)NC(=O)[C@@H](NC(=O)[C@H](Cc2ccccc2)NC(=O)[C@@H](NC(=O)[C@H](CCCCN)NC(=O)[C@H](CO)NC(=O)[C@H](Cc2ccccc2)NC(=O)[C@@H](NC(=O)[C@H](CCCCN)NC(=O)[C@H](C)NC(=O)[C@H](C)NC(=O)[C@@H](NC(=O)[C@H](CO)NC(=O)[C@H](C)NC(=O)[C@@H](NC(=O)[C@@H](NC(=O)[C@@H]2CCCN2C(=O)[C@H](CC(C)C)NC(=O)[C@@H](N)Cc2ccccc2)[C@@H](C)CC)[C@@H](C)CC)C(C)C)C(C)C)[C@@H](C)CC)CSSC[C@@H](C(=O)O)NC(=O)[C@H](CCCCN)NC(=O)[C@H](CCCCN)NC(=O)[C@H](CO)NC1=O` [FLPIIASVAAKVFSKIFCAISKKC]: the MIC in experiment [3] worked out at 7 µM (≈ 18.1 µg/mL); in experiment [1], 7 µM (≈ 18.1 µg/mL); in experiment [2], 5 µM (≈ 12.9 µg/mL).

On to `CC[C@H](C)[C@H](NC(=O)[C@@H](NC(=O)[C@@H]1CCCN1C(=O)[C@H](CC(C)C)NC(=O)[C@@H](N)Cc1ccccc1)C(C)C)C(=O)N[C@@H](C)C(=O)NCC(=O)N[C@@H](CC(C)C)C(=O)N[C@@H](CC(C)C)C(=O)N[C@@H](CO)C(=O)N[C@@H](CCCCN)C(=O)N[C@@H](CC(C)C)C(=O)N[C@@H](Cc1ccccc1)C(N)=O` [FLPVIAGLLSKLF], for which the MIC in experiment [1] and in experiment [4] was 8 µM (≈ 11.3 µg/mL) each time.

For `CC[C@H](C)[C@H](NC(=O)CN)C(=O)N[C@@H](Cc1ccccc1)C(=O)N[C@@H](CC(N)=O)C(=O)N[C@H](C(=O)N[C@@H](Cc1ccccc1)C(=O)N[C@@H](CCCCN)C(=O)NCC(=O)N[C@@H](C)C(=O)N[C@@H](CC(C)C)C(=O)N[C@@H](CCCCN)C(=O)N[C@H](C(=O)N[C@@H](C)C(=O)NCC(=O)N[C@@H](CCCCN)C(=O)N[C@@H](Cc1cnc[nH]1)C(=O)N[C@H](C(=O)N[C@@H](C)C(=O)NCC(=O)N[C@@H](CO)C(=O)N[C@@H](CC(C)C)C(=O)N[C@@H](CC(C)C)C(=O)N[C@@H](CC(N)=O)C(=O)N[C@@H](CCC(N)=O)C(=O)N[C@@H](CC(C)C)C(=O)N[C@@H](CCCCN)C(=O)N[C@H]1CSSC[C@@H](C(=O)O)NC(=O)[C@H](CCC(=O)O)NC(=O)CNC(=O)[C@H](CO)NC(=O)[C@H](C(C)C)NC(=O)[C@H](CCCCN)NC1=O)C(C)C)[C@@H](C)O)C(C)C` [GIFNVFKGALKTAGKHVAGSLLNQLKCKVSGEC], the values for the minimum inhibitory concentration (MIC) in experiment [3], in experiment [1] and in experiment [2] were not below 40 µM, 9 µM (≈ 30.8 µg/mL) and 4 µM (≈ 13.7 µg/mL), respectively.

`CC[C@H](C)[C@H](NC(=O)[C@H](CCCCN)NC(=O)CNC(=O)[C@H](Cc1ccccc1)NC(=O)[C@H](CC(C)C)NC(=O)CN)C(=O)N[C@@H](CC(C)C)C(=O)NCC(=O)N[C@H](C(=O)NCC(=O)N[C@@H](CCCCN)C(=O)N[C@@H](CCCCN)C(=O)N[C@H](C(=O)N[C@@H](CC(C)C)C(=O)N[C@H]1CSSC[C@@H](C(=O)O)NC(=O)[C@H](CCSC)NC(=O)CNC(=O)[C@H](CO)NC(=O)[C@H](CC(C)C)NC(=O)CNC1=O)C(C)C)C(C)C` [GLFGKILGVGKKVLCGLSGMC]: the MIC in experiment [3] was not below 50 µM; in experiment [1], 12.5 µM (≈ 26 µg/mL); in experiment [2], 3 µM (≈ 6.24 µg/mL).

Take `CC[C@H](C)[C@H](NC(=O)[C@H](CCCCN)NC(=O)[C@H](CC(=O)O)NC(=O)[C@H](CC(C)C)NC(=O)[C@H](C)NC(=O)[C@H](CO)NC(=O)[C@H](C)NC(=O)[C@H](CC(C)C)NC(=O)[C@H](CC(C)C)NC(=O)[C@H](CC(N)=O)NC(=O)[C@H](CCCCN)NC(=O)[C@H](C)NC(=O)[C@H](C)NC(=O)CNC(=O)[C@H](CCCCN)NC(=O)[C@H](Cc1ccccc1)NC(=O)[C@@H](NC(=O)[C@H](CC(=O)O)NC(=O)[C@H](CCSC)NC(=O)[C@H](CC(C)C)NC(=O)CN)C(C)C)C(=O)N[C@@H](CCCN=C(N)N)C(=O)N[C@H]1CSSC[C@@H](C(=O)O)NC(=O)[C@H](CCCCN)NC(=O)[C@H]([C@@H](C)O)NC(=O)[C@H](C(C)C)NC(=O)[C@H](CCCCN)NC1=O` [GLMDVFKGAAKNLLASALDKIRCKVTKC]: the MIC in experiment [3] was not below 100 µM; in experiment [1], not below 100 µM; in experiment [2] it was 13 µM (≈ 38.9 µg/mL).

As to `CC[C@H](C)[C@H](NC(=O)[C@H](C)NC(=O)[C@H](CCC(=O)O)NC(=O)[C@H](Cc1cnc[nH]1)NC(=O)[C@H](Cc1ccccc1)NC(=O)CNC(=O)[C@H](CCC(N)=O)NC(=O)[C@H](Cc1ccccc1)NC(=O)[C@@H](NC(=O)[C@H](CCCCN)NC(=O)[C@H](CCCCN)NC(=O)[C@H](CC(C)C)NC(=O)[C@H](C)NC(=O)[C@H](CC(N)=O)NC(=O)[C@H](CC(C)C)NC(=O)CN)C(C)C)C(=O)N[C@@H](CCCCN)C(=O)N[C@@H](CC(C)C)C(=O)N[C@H](C(=O)N[C@@H](CC(N)=O)C(=O)N[C@@H](CC(N)=O)C(=O)N[C@@H](Cc1cnc[nH]1)C(=O)N[C@H](C(=O)N[C@@H](CCC(N)=O)C(=O)O)C(C)C)[C@@H](C)CC` [GLNALKKVFQGFHEAIKLINNHVQ], the MIC is not below 160 µM in experiment [1] and more than 80 µM in experiment [2].

Take `CC(C)C[C@H](NC(=O)[C@H](CC(=O)O)NC(=O)[C@H](CC(N)=O)NC(=O)[C@H](C)NC(=O)[C@H](CC(N)=O)NC(=O)[C@H](CC(=O)O)NC(=O)[C@@H](N)C(C)C)C(=O)N[C@@H](CC(C)C)C(=O)N[C@@H](CO)C(=O)N[C@@H](CCCCN)C(=O)N[C@H](C(=O)N[C@@H](CCCCN)C(=O)N[C@@H](CCCCN)C(=O)N[C@@H](CC(=O)O)C(=O)N[C@@H](CCCCN)C(=O)N[C@@H](CO)C(=O)N[C@@H](CC(=O)O)C(=O)O)C(C)C` [VDNANDLLSKVKKDKSD]: the MIC against Bacillus subtilis 168 was 1.11 µM (≈ 2.1 µg/mL); in the experiment on Staphylococcus aureus it was 8.26 µM (≈ 15.6 µg/mL); in experiment [2] it was 4.39 µM (≈ 8.3 µg/mL); in the experiment on Micrococcus luteus, 4.39 µM (≈ 8.3 µg/mL).

Regarding `CC[C@H](C)[C@H](NC(=O)CNC(=O)[C@H](CC(C)C)NC(=O)[C@H](CO)NC(=O)[C@H](CCC(=O)O)NC(=O)[C@H](CCSC)NC(=O)[C@H](CCCCN)NC(=O)[C@H](C)NC(=O)[C@H](CCCCN)NC(=O)[C@H](CC(=O)O)NC(=O)[C@@H](NC(=O)[C@@H](N)C(C)C)[C@@H](C)CC)C(=O)N[C@H](C(=O)N[C@@H](CO)C(=O)N[C@@H](CCCN=C(N)N)C(=O)N[C@@H](CC(=O)O)C(=O)N[C@H](C(=O)N[C@H](C(=O)O)[C@@H](C)O)[C@@H](C)O)[C@@H](C)O` [VIDKAKMESLGITSRDTT], the MIC against Bacillus subtilis 168 came to 7.94 µM (≈ 15.6 µg/mL); in the experiment with Staphylococcus aureus it was 15.9 µM (≈ 31.2 µg/mL); in experiment [2] it was 15.9 µM (≈ 31.2 µg/mL); against Micrococcus luteus it was 7.94 µM (≈ 15.6 µg/mL).
